From PMC4750701, “Role of Mitochondrial RNA Polymerase in the Toxicity of Nucleotide Inhibitors of Hepatitis C Virus” (Antimicrobial Agents and Chemotherapy, 2016)

How the values were obtained:
[1] = Cytotoxicity in MRC5 fibroblasts, 5-day treatment; conditions: human, MRC5 fibroblasts
Description: (§2) All cells were cultured at 37°C in a 5% CO2 incubator with 90% humidity unless noted otherwise. […] All cells were treated with the various compounds for 5 days, except for human erythroid and myeloid progenitors, which were treated for 14 days. After the incubation period, cell viability was measured by the addition of CellTiter Glo viability reagents (Promega, Madison, WI). The luminescence signal was quantified on an Envision luminescence plate reader (PerkinElmer, Waltham, MA) after incubation of the reagents and cells for 10 min at room temperature. […] CC50 values were calculated as the average of the results of three or four independent experiments.
Cell Culture and Cytotoxicity Studies
(§3) The Huh-7 cells were maintained in growth medium containing Dulbecco's Modified Eagle
(§4) Medium (DMEM, Cellgro) supplemented with 1% Nonessential Amino Acids (NEAA, Cellgro,
(§5) Manassas, VA), 10% fetal bovine serum (FBS, HyClone, Logan, UT) and 1% Penicillin-
(§6) streptomycin-glutamate (PSG, Invitrogen, Carlsbad, CA). The cells were passaged twice weekly
(§7) and maintained at 90% confluence densities.
(§8) The HepG2 cells were maintained in Eagle’s Minimum Essential Medium (EMEM) from ATCC
(§9) (Manassas, VA) supplemented with 10% FBS, 100 units/mL penicillin and 100 µg/mL
(§10) streptomycin (P/S) (Gibco). The cells were passaged twice weekly and maintained at 90%
(§11) The PC-3 cells were maintained in Kaighn’s F12 medium (Gibco, Carlsbad, CA) supplemented
(§12) with 10% FBS (HyClone, Logan, UT), 100 units/mL penicillin and 100 µg/mL streptomycin
(§13) (P/S) (Gibco). The cells were passaged twice weekly and maintained at 90% confluence. Cells
(§14) between passages 4 and 15 were used in the assays.
(§15) The fibroblast cell line MRC-5 cell line derived from normal lung tissue, was purchased from
(§16) ATCC (Manassas, VA) and cultured in Minimum Essential Medium (MEM) (Cellgro, Manassas,
(§17) VA) supplemented with 10% FBS (HyClone, Logan, UT) and 1% PSG (Invitrogen). The cells
(§18) were passaged twice weekly and maintained at 90% confluence densities.

[2] = Cytotoxicity in primary human hepatocytes, 5 days; conditions: human, primary human hepatocytes
Description: Primary human hepatocytes were from Bioreclamation IVT (Westbury, NY) or Life Technologies (Carlsbad, CA).
as §2

[3] = tested on: mitochondrial spare respiratory capacity; assay: Oxygen consumption rate / spare respiratory capacity in PC-3 cells; conditions: human, pH 7.4
Description: Mitochondrial respiration was monitored by measuring the rate of oxygen consumption (OCR) of PC-3 cells after 3-day treatments with the compounds, using a Seahorse extracellular flux analyzer (XF^e-96) based on published protocols ([22][–][24]). The optimal cell seeding was determined by measuring the basal OCR of PC-3 cells that were seeded at different densities of 2.5 × 10^3, 5 × 10^3, 7.5 × 10^3, and 10 × 10^3 cells/well in XF 96-well plates (Seahorse Bioscience, North Billerica, MA) and incubated with 0.5% dimethyl sulfoxide (DMSO) for 3 days. […] Each reagent in the Mito Stress test kit (Seahorse Biosciences), i.e., ATP synthase inhibitor oligomycin, mitochondrial uncoupler carbonyl cyanide-4-(trifluoromethoxy)phenylhydrazone (FCCP), and a fixed-ratio mixture of the mitochondrial complex I (NADH dehydrogenase) inhibitor rotenone and the complex III (CoQH2-cytochrome c reductase) inhibitor antimycin A, was titrated. The lowest concentration that reached the maximal effect was chosen for each reagent. The OCR signals were normalized by cell numbers using DNA content determined by Hoechst's stain as described below.
PC-3 cells were seeded at a density of 5 × 10^3 cells/well in XF 96-well plates and incubated with the compounds for 3 days. On the day of the assay, the cell medium was replaced with XF assay medium (pH 7.4) containing 10 mM glucose and 1 mM freshly prepared pyruvate. Mitochondrial respiration was monitored by measuring OCR on a Seahorse extracellular flux analyzer (XF^e-96). All concentrations listed are the final concentration after mixing unless noted otherwise. […] Spare respiratory capacity was obtained by subtracting the rate of basal respiration from the rate of maximal respiration.
The cells were lysed by freezing at −80°C for >2 h. […] In parallel, another set of cells was treated with the compounds for 3 days and the ATP levels were measured using CellTiter Glo viability reagents (Promega, Madison, WI).

[4] = Cytotoxicity / ATP level in PC-3 cells, 5-day treatment; conditions: human, PC-3 cells
[5] = Cytotoxicity in quiescent PBMCs, 5 days; conditions: human, quiescent PBMCs
recombinant human PolRMT = molecular target: T1, recombinant human PolRMT (Homo sapiens, UniProt O00411); assay: Inhibition of PolRMT-catalyzed RNA synthesis; format: biochemical; conditions: triphosphate form of the compound tested (Table 4); read-out: Mean IC50 ± SD for PolRMT
T1 construct: purchased Enzymax (Lexington, KY)
Text: Activated fish sperm DNA was purchased from USB/Affymetrix (Santa Clara, CA) and used as a template for the DNA polymerases alpha, beta, and gamma. […] The RNA and DNA oligonucleotides used in the mitochondrial RNA polymerase assay (see Table S1 in the supplemental material) were synthesized and PAGE purified by Thermo Scientific/Dharmacon (Lafayette, CO). RNA primer R12 was 5′-^32P-phosphorylated with [γ-^32P]ATP (3,000 Ci/mmol) and T4 kinase (New England BioLabs, Ipswich, MA).
Human DNA polymerase alpha, isolated from HeLa cell extracts, was from CHIMERx (Madison, WI). Recombinant human DNA polymerase beta, expressed in E. coli, was a gift from Zucai Suo at The Ohio State University. Recombinant human DNA polymerase gamma (including both the large subunit and the small subunit) was cloned, expressed, and purified from insect cells by Gilead Sciences (Foster City, CA) ([13]). RNA PolII was purchased as part of the HeLaScribe nuclear extract in vitro transcription system kit from Promega (Madison, WI). The recombinant human PolRMT and the transcription factors mitochondrial transcription factor A (mtTFA) and B2 (mtTFB2) were purchased from Enzymax (Lexington, KY). FLAG epitope-tagged RNA PolI and PolIII complexes were isolated from rat NSN1 cells and HeLa cells, respectively ([17], [18]). The inhibition of DNA polymerases alpha, beta, and gamma, PolRMT, and PolII and the rate of single-nucleotide incorporation by PolRMT have been described previously in detail ([12], [13], [19]). Inhibition of RNA PolI and PolIII was studied using published methods ([20], [21]). All concentrations were final unless noted otherwise. […] After incubation at 30°C for 20 min to 1 h, the reactions were terminated by pipetting the mixtures onto DEAE-cellulose discs (DE81; Whatman), and the products analyzed as described previously ([20], [21]).

[6] = tested on: mitochondrial DNA-encoded cytochrome c oxidase (COX-1; complex IV) protein level; assay: Mitochondrial protein synthesis assay (COX-1, MitoBiogenesis in-cell ELISA) in PC-3 cells; format: cell-based, human; conditions: human; PC-3 cells, COX-1, 5 days; read-out: Mean CC50 ± SD causing Mitochondrial toxicity: Protein synthesis
Procedure, shortened: (§1)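 PC-3 cells were exposed to compound for 5 days. Protein levels of nuclear-encoded SDH-A and mitochondrial-encoded COX-1 were then quantified by in-cell ELISA (quantitative immunocytochemistry).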

[7] = Cytotoxicity in MT-4 T-cells, 5-day treatment; conditions: human, MT-4 cells
[8] = Cytotoxicity in HepG2 (galactose) cells, 5-day treatment; conditions: human, HepG2 cells (galactose)
Description: as §2
Cell Culture and Cytotoxicity Studies
as §3, §4, §5, §6, §7, §8, §9, §10, §11, §12, §13, §14, §15, §16, §17, §18

[9] = Bone marrow myeloid progenitor colony assay, 14 days; format: cell-based, human; conditions: human, read-out: Mean CC50 ± SD in Bone marrow cells Myeloid; for CC50 at 14 days: human bone marrow myeloid progenitors
[10] = tested on: nuclear DNA-encoded succinate dehydrogenase (SDH-A; complex II) protein level; assay: Nuclear protein synthesis (SDH-A, MitoBiogenesis in-cell ELISA) in PC-3 cells; format: cell-based, human; conditions: human, read-out: Mean CC50 ± SD causing General cellular toxicity: Protein synthesis
Procedure, shortened: as §1

Prostate cells (PC-3) = assay: Cytotoxicity / ATP level in PC-3 cells, 5-day treatment; conditions: read-out: Mean CC50 ± SD causing General cellular toxicity: ATP level; PC-3 cells, 5 days

T1 sequence (O00411 42-1230): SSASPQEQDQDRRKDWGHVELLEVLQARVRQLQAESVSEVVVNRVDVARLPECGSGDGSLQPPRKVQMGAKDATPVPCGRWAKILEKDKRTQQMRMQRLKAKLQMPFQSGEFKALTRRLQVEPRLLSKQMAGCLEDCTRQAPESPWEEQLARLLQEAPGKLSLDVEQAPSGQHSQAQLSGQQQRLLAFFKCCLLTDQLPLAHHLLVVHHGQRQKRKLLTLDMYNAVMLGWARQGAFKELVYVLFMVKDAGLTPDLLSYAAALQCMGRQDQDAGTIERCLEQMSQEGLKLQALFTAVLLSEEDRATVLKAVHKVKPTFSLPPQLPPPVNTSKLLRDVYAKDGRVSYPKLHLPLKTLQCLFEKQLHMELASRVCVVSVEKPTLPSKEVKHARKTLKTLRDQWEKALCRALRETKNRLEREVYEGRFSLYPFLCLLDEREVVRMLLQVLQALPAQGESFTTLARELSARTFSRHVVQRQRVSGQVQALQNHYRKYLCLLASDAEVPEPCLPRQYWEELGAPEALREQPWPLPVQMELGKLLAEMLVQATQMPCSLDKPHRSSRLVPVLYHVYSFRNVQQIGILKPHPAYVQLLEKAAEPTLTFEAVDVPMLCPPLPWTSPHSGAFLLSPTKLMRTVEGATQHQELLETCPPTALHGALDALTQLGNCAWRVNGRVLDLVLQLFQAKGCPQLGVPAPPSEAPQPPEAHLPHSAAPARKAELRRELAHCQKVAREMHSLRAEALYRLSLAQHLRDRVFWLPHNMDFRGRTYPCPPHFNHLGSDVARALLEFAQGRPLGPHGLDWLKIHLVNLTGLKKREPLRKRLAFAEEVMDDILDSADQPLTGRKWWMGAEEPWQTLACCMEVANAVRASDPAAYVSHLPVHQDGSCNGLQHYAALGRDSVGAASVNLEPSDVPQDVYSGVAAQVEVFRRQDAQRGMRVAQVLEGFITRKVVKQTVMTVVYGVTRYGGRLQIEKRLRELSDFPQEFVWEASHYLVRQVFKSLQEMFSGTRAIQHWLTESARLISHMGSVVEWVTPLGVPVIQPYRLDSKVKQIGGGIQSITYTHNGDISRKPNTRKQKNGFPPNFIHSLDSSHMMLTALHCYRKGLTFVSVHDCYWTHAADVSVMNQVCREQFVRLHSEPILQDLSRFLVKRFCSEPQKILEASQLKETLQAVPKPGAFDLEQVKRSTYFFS

Compound	CC50 at 5 days [1] [µM]	CC50 at 5 days [2] [µM]	CC50 at 3 days ([3]; PC-3 cells) [µM]	CC50 at 5 days [4] [µM]	CC50 at 5 days [5] [µM]	IC50 (recombinant human PolRMT) [µM]	CC50 at 5 days [6] [µM]	CC50 at 5 days [7] [µM]	CC50 at 5 days [8] [µM]	CC50 at 14 days [9] [µM]	CC50 at 5 days [10] [µM]	CC50 at 3 days [3] [µM]	CC50 [6] [µM]	CC50 [9] [µM]	CC50 (Prostate cells (PC-3)) [µM]
C[C@@]1(O)[C@H](O)[C@@H](CO)O[C@H]1n1ccc(N)nc1=O [2′CMeC, 2′-C-methyl (2′CMe) cytidine]	69 ± 1	> 100	100	49 ± 18	> 100	230 ± 90	50 ± 25	19 ± 6	> 89	76 ± 16	68 ± 26				
[N-]=[N+]=N[C@]1(CO)O[C@@H](n2ccc(N)nc2=O)[C@H](O)[C@@H]1O [4′-AzidoC, 4′-azido cytidine]	> 89	> 100	4.5 ± 0.3	30 ± 6	> 100	3.8 ± 2	11 ± 3	> 100	> 89	108 ± 12	> 50				
COc1nc(N)nc2c1ncn2[C@@H]1O[C@H](COP(=O)(N[C@@H](C)C(=O)OCC(C)(C)C)Oc2cccc3ccccc23)[C@@H](O)[C@@]1(C)O (stereo partly shown) [BMS-986094]						52					0.84 ± 0.26	0.48 ± 0.07	0.68 ± 0.1	2.6 ± 0.5	
CC(C)OC(=O)[C@H](C)N[P@](=O)(OC[C@H]1O[C@@](C#N)(c2ccc3c(N)ncnn23)[C@](C)(O)[C@@H]1OC(=O)C(C)C)Oc1ccccc1 [GS-6620]						> 500					45 ± 2		31 ± 5		
CCOc1nc(N)nc2c1ncn2[C@@H]1O[C@@H]2COP(=O)(OC(C)C)O[C@H]2[C@@]1(C)F (stereo partly shown) [PSI-938]	> 89	> 100		> 100	> 100	> 500	> 100	> 100	> 89	> 100	> 100				> 100
C[C@@]1(F)[C@H](O)[C@@H](CO)O[C@H]1n1ccc(N)nc1=O [PSI-6130]	> 89	> 100		> 100	> 100	> 500	70 ± 14	> 100	> 89		> 100				> 100
CC(C)OC(=O)[C@H](C)N[P@](=O)(OC[C@H]1O[C@@H](n2ccc(=O)[nH]c2=O)[C@](C)(F)[C@@H]1O)Oc1ccccc1 [Sofosbuvir]						> 500	> 100				> 100				> 100
